Laboratory results from patent US20240216357A1 (SICHUAN HUIYU PHARMACEUTICAL CO., LTD., priority 2021, published 2024).
Structures can show the parent of a compound that is named as a salt. Where two headings read alike, the source gives them in different places.

Tests used:
NCI-H1417 cells = experiment: In vitro cell proliferation detection (CellTiter-Glo, 7 days); assay type: cell-based; details: read-out: NCI-H1417 proliferation inhibition IC50
LSD1 = LSD1 (Homo sapiens (Human), UniProt O60341); experiment: LSD1 enzyme activity detection (HTRF); assay type: biochemical; details: read-out: Inhibition of enzymatic activity of LSD1 IC50
[1] = Homo sapiens, 168 h, NCI-H1417 cells, 7 days, CellTiter-Glo

SMILES | IC50 (NCI-H1417 cells; [1]) | IC50 (LSD1; HTRF, H3K4me1 substrate) | IC50 (LSD1) | IC50 (NCI-H1417 cells)
COc1ccc(-c2c(O)cc(N3CCC(NCC(C)(C)O)CC3)nc2-c2ccc(C#N)c(F)c2)cc1F [Example 45, 2-fluoro-4-(3-(3-fluoro-4-methoxyphenyl)-4-hydroxy-6-(4-((2-hydroxy-2-methylpropyl)amino)piperidin-1-yl)pyridin-2-yl)benzonitrile hydrochloride] | 160 nM | 184 nM | – | –
COc1ccc(-c2c(O)cc(N3C4CCC3CC(N)C4)nc2-c2ccc(C#N)c(F)c2)cc1F (centres unmarked) [Example 14, 4-(6-(3-amino-8-azabicyclo[3.2.1]octane-8-yl)-3-(3-fluoro-4-methoxyphenyl)-4-hydroxypyridin-2-yl)-2-fluorobenzonitrile] | 64.9 nM | 13.8 nM | – | –
N#Cc1ccc(-c2nc(N3C4CCC3CC(N)C4)n3ccnc3c2-c2cc3[nH]ncc3cc2F)cc1F (centres unmarked) [Example 173, 4-(5-(3-amino-8-azabicyclo[3.2.1]octane-8-yl)-8-(5-fluoro-1H-indazole-6-yl)imidazolo[1,2-c]pyrimidin-7-yl)-2-fluorobenzonitrile hydrochloride] | 8.15 nM | 0.8 ± 0.2 nM | – | –
CC(C)(O)Cn1ncc2cc(F)c(-c3sc(C(=O)N4C5CCC4CC(N)C5)cc3-c3ccc(C#N)c(F)c3)cc21 (centres unmarked) [Example 217, 4-(5-(3-amino-8-azabicyclo [3.2.1]octan-8-carbonyl)-2-(5-fluoro-1-(2-hydroxy-2-methylpropyl)-1H-indazol-6-yl)thiophen-3-yl)-2-fluorobenzonitrile hydrochloride] | 67.8 nM | 12.8 nM | – | –
Cc1noc2c(-c3sc(C(=O)N4C5CCC4CC(N)C5)cc3-c3ccc(C#N)c(F)c3)c(F)ccc12 (centres unmarked) [Example 209, 4-(5-(3-amino-8-azabicyclo [3.2.1]octan-8-carbonyl)-2-(6-fluoro-3-methylbenzo[d]isoxazol-7-yl)thiophen-3-yl)-2-fluoro-benzonitrile hydrochloride] | 1.44 nM | 0.507 nM | – | –
N#Cc1ccc(-c2nc(N3C4CCC3CC(N)C4)n3ccnc3c2-c2cc3c(cc2F)CCN3)cc1F (centres unmarked) [Example 171] | 6 nM | 1.9 ± 1.5 nM | – | –
CNC1CCCN(c2ccnn3c(-c4ccc(C)cc4)c(-c4ccc(C#N)cc4)cc23)C1 (centres unmarked) [Example 197, 4-(4-(3-(methylamino)piperidin-1-yl)-7-(p-tolyl)pyrrolo[1,2-b]pyridazin-6-yl]benzonitrile hydrochloride] | 24.2 nM | – | 9.44 ± 5.96 nM | –
COc1ccc(-c2sc(C(=O)N3C4CCC3CC(N)C4)cc2-c2ccc(C#N)c(F)c2)cc1O (centres unmarked) [Example 218, 4-(5-(3-amino-8-azabicyclo [3.2.1]octan-8-carbonyl)-2-(3-hydroxy-4-methoxy-phenyl)thiophen-3-yl)-2-fluorobenzonitrile] | 0.88 nM | 0.15 ± 0.03 nM | – | –
Cc1ccc(-c2c(-c3ccc(C#N)c(F)c3)nc(N3CCC(N)CC3)c3ccoc23)cc1O [Example 268, 4-(4-(4-aminopiperidin-1-yl)-7-(3-hydroxy-4-methylphenyl)furan[3,2-c]pyridin-6-yl)-2-fluorobe nzonitrile hydrochloride] | – | – | 1.5 ± 0.5 nM | 0.378 nM
Cc1noc2cc(-c3oc(C(=O)N4C5CCC4CC(N)C5)cc3-c3ccc(C#N)c(F)c3)c(F)cc12 (centres unmarked) [Example 219, 4-(5-(3-amino-8-azabicyclo[3.2.1]octane-8-carbonyl)-2-(5-fluoro-3-methylbenzo[d]isoxazol-6-yl)furan-3-yl)-2-fluorobenzonitrile hydrochloride] | 95.3 nM | – | 7.3 ± 0.46 nM | –
Cc1ccc(-c2c(-c3ccc(C#N)c(F)c3)nc(N3CCC(N)CC3)c(C)c2O)cc1O [Example 65, 4-(6-(4-aminopiperidin-1-yl)-4-hydroxy-3-(3-hydroxy-4-methylphenyl)-5-methylpyridin-2-yl)-2-fluorobenzonitrile hydrochloride] | 0.95 nM | 0.7 ± 0.4 nM | – | –
COc1ccc(-c2c(-c3ccc(C#N)c(F)c3F)nc(N3C4CCC3CC(N)C4)n3ccnc23)cc1F (centres unmarked) [Example 183, 4-(5-(3-amino-8-azabicyclo[3.2.1]octane-8-yl)-8-(3-fluoro-4-methoxyphenyl)imidazolo[1,2-c]pyrimidin-7-yl)-2,3-difluorobe nzonitrile hydrochloride] | 6.28 nM | 3.6 ± 0.6 nM | – | –
CC(C)(O)COc1ccc(-c2c(O)cc(N3CCC(N)CC3)nc2-c2ccc(C#N)c(F)c2)cc1F [Example 38, 4-(6-(4-aminopiperine-1-yl)-3-(3-fluoro-4-(2-hydroxy-2-methylpropoxy)phenyl)-4-hydroxypyridin-2-yl)-2-fluorobenzonitrile hydrochloride] | 179 nM | 57.6 nM | – | –
N#Cc1ccc(-c2nc(N3CCC(N)CC3)cc(O)c2-c2ccc3oc(=O)[nH]c3c2)cc1F [Example 19, 4-(6-(4-aminopiperidin-1-yl)-4-hydroxy-3-(2-oxo-2,3-dihydrobenzo[d]oxazol-5-yl)pyridin-2-yl)-2-fluorobenzonitrile hydrochloride] | > 1000 nM | 5.96 nM | – | –

More lines, main results first:

IC50 (NCI-H1417 cells; [1]) | IC50 (LSD1; HTRF, H3K4me1 substrate) | SMILES | IC50 (LSD1) | IC50 (NCI-H1417 cells)
630 nM | 35.4 nM | Cn1ccc(-c2cnc(N3CCC(N)CC3)c(C#N)c2-c2ccc(C#N)c(F)c2)cc1=O [Example 83, 6-(4-aminopiperidin-1-yl)-4-(4-cyano-3-fluorophenyl)-1′-methyl-2′-oxo-1′,2′-dihydro-[3,4′-bipyridine]-5-carbonitrile hydrochloride] | – | –
0.76 nM | 0.6 nM | N#Cc1ccc(-c2c(-c3ccc(N4CCOCC4)c(O)c3)cnc(N3CCC(N)CC3)c2C#N)cc1F [Example 85, 2-(4-aminopiperidin-1-yl)-4-(4-cyano-3-fluorophenyl)-5-(3-hydroxy-4-morpholinophenyl) nicotinonitrile hydrochloride] | – | –
0.305 nM | 0.1 ± 0.05 nM | CNC1CCN(c2nc(-c3ccc(C#N)c(F)c3)c(-c3ccc(OC)c(O)c3)c3nccn23)CC1 [Example 138, 2-fluoro-4-(8-(3-hydroxy-4-methoxyphenyl)-5-(4-(methylamino)piperidin-1-yl)imidazolo[1,2-c]pyrimidin-7-yl)benzonitrile hydrochloride] | – | –
8.64 nM | 10.1 nM | COc1ccc(-c2c(-c3ccc(C#N)c(F)c3)nc(N3CCC(N)CC3)c3nc[nH]c23)cc1F [Example 270, 4-(4-(4-aminopiperidin-1-yl)-7-(3-fluoro-4-methoxyphenyl)-1H-imidazolo[4,5-c]pyridin-6-yl)-2-fluorobenzonitrile hydrochloride] | – | –
3.18 nM | 8.9 ± 0.3 nM | COc1cc(N2CCN(C)CC2)nc(-c2ccc(C#N)c(F)c2)c1-c1ccc(C)c(O)c1 [Example 100, 2-fluoro-4-(3-(3-hydroxy-4-methylphenyl)-4-methoxy-6-(4-methylpiperazin-1-yl)pyridin-2-yl) benzonitrile] | – | –
1.24 nM | 0.5 ± 0.1 nM | Cc1ccc(-c2c(-c3ccc(C#N)c(F)c3)nc(N3CC4CCC3CC4N)n3ccnc23)cc1O (centres unmarked) [Example 168, 4-(5-(5-amino-2-azabicyclo [2.2.2]octane-2-yl)-8-(3-hydroxy-4-methylphenyl)imidazolo[1,2-c]pyrimidin-7-yl)-2-fluorobenzo nitrile] | – | –
104 nM | 24.9 nM | COc1cc(N2CCC(N)CC2)nc(-c2ccc(C#N)c(F)c2)c1-c1ccc(C#N)c(F)c1 [Example 94, 4,4′-(6-(4-aminopiperidin-1-yl)-4-methoxypyridin-2,3-diyl)bis(2-fluorobenzonitrile)] | – | –
0.2 nM | 0.2 ± 0.1 nM | Cc1ccc(-c2cnc(N3CCC(N)CC3)c(C#N)c2-c2ccc(C#N)c(F)c2)cc1O [Example 67, 2-(4-aminopiperidin-1-yl)-4-(4-cyano-3-fluorophenyl)-5-(3-hydroxy-4-methylphenyl) nicotinonitrile hydrochloride] | – | –
27.8 nM | 52.1 nM | COc1ccc(-c2nc(CN[C@@H]3C[C@H]3c3ccc(F)cc3)cc(C(=O)N3CCN(S(C)(=O)=O)CC3)n2)cc1F [Example 225] | – | –
12.8 nM | 33.2 nM | Cc1noc2cc(-c3c(-c4ccc(C#N)c(F)c4)nc(N4CCC(C)(N)CC4)n4ccnc34)c(F)cc12 [Example 149, 4-(5-(4-amino-4-methylpiperidin-1-yl)-8-(5-fluoro-3-methylbenzo [d]isoxazol-6-yl)imidazolo[1,2-c]pyrimidin-7-yl)-2-fluorobenzonitrile] | – | –
12.6 nM | 26.9 nM | COc1ccc(-c2nc(CN[C@@H]3C[C@H]3c3ccc(F)cc3)cc(C(=O)N3CCOCC3)n2)cc1O [Example 241] | – | –
2.05 nM | 13 nM | O=C(c1cc(CN[C@@H]2C[C@H]2c2ccc(F)cc2)nc(-c2ccc(-n3cccn3)cc2)n1)N1CCOCC1 [Example 229] | – | –
12.2 nM | 6.6 ± 1 nM | Cc1ccc(-c2cnc(N3CCC(N)CC3)c(C#N)c2-c2ccc(C#N)c(F)c2)cc1F [Example 72, 2-(4-aminopiperidin-1-yl)-4-(4-cyano-3-fluorophenyl)-5-(3-fluoro-4-methylphenyl) nicotinitrile] | – | –
10.8 nM | 71.3 nM | CS(=O)(=O)N1CCN(C(=O)c2cc(CCN[C@@H]3C[C@H]3c3ccc(F)cc3)cc(-c3ccc(-n4cccn4)cc3)n2)CC1 [Example 256, (6-(4-(1H-pyrazol-1-yl)phenyl)-4-(2-(((1R,2S)-2-(4-fluorophenyl)cyclopropyl)amino)ethyl)pyridin-2-yl) (4-(methylsulfonyl)piperazin-1-yl)methanone] | – | –
0.2 ± 0.15 nM | 0.4 ± 0.1 nM | COc1ccc(-c2c(-c3ccc(C#N)c(F)c3)nc(N3CCC(N(C)C)CC3)n3ccnc23)cc1O [Example 140, 4-(5-(4 (dimethylamino)piperidin-1-yl)-8-(3-hydroxy-4-methoxyphenyl)imidazolo[1,2-c]pyrimidin-7-yl)-2-fluorobenzonitrile] | – | –
136 nM | – | COc1ccc(-c2cc(C#N)c(N3CCC(N)CC3)nc2-c2ccc(C#N)c(F)c2)cc1O [Example 282, 2-(4-aminopiperidin-1-yl)-6-(4-cyano-3-fluorophenyl)-5-(3-hydroxy-4-methoxyphenyl)nicotinon itrile hydrochloride] | – | –
